Measurements reported in PMC10221837, “Alanine Substitution to Determine the Effect of LR5 and YR6 Rice Peptide Structure on Antioxidant and Anti-Inflammatory Activity” (Nutrients, 2023).
Ends that are not written are not given here.

What follows are substances tested on RAW264.7 cells (assay: MTT proliferation and cytotoxicity of peptides (stimulating index)). Details: RAW264.7, MTT, 24 h, across 12.5, 25, 50 and 100 μg/mL peptide.
Format: cell-based, mouse
Description: The MTT colorimetry method was used to determine the effects of original rice peptides and replacement peptides on RAW264.7 cell proliferation, and the toxic effects of these peptides on the cells. RAW264.7 cells were cultured in DMEM high glucose medium containing 10% (v/v) fetal bovine serum (FBS) and 1% (v/v) of penicillin–streptomycin solution (10,000 U/mL of penicillin and 10,000 U/mL of streptomycin). The cells were cultured at 37 °C in a humidified incubator (Boxun Co., Ltd., Shanghai, China) with 5% (v/v) CO2, with sub-culturing every three days.
Briefly, pre-cultured, logarithmic phase cells were inoculated into 96-well plates (with six double wells for each group), at a cell density of 6.0 × 10^4 cells/mL. Then, 200 μL of cell suspension was added into the wells and incubated for 6 h to make the cells adhere to the well wall. After that, different concentrations of samples (12.5, 25, 50, and 100 μg/mL) were added to four of the six corresponding wells for each group. Sterile water and immunoglobulin G (IgG) were used as the blank and positive control groups, respectively. The samples were subsequently incubated in a humidified incubator with 5% (v/v) CO2 at 37 °C for 24 h, and then 20 μL of MTT solution (5 mg/mL) was added to each well and incubated for a further 4 h. Next, the culture medium supernatant was gently removed from the wells, and 150 μL of dimethyl sulfoxide (DMSO) solution was added into the wells, which were shaken for 10 min at room temperature to ensure that the […] was fully dissolved. Then, the solution was immediately detected at 490 nm. The cytotoxicity was evaluated based on the following stimulating index (SI) value Formula (3):(3) SI=OD1/OD0 where OD1 is the absorbance value at 490 nm of the sample group or the IgG group, and OD0 is the absorbance value at 490 nm of the blank group.

Row | Substance | SI value (stimulating index, OD sample/OD blank)
1 | AGLYPR [AGR6] | greater than 1.0
2 | AHKFR [AR5] | greater than 1.0
3 | LHKAR [LAR5] | greater than 1.0
4 | LHKFR [LR5] | greater than 1.0
5 | YGAYPR [YAR6] | greater than 1.0
6 | YGLAPR [YLR6] | greater than 1.0
7 | YGLYAR [YGR6] | greater than 1.0
8 | YGLYPR [YR6] | greater than 1.0
